Where a name gives a salt, the structure may show the parent alone.
Key:
human cultured PBMC = assay: Cell migration test (in vitro, human MIP-1β-induced migration of human cultured PBMC); type: cell-based; details: human MIP-1β in lower well, incubated 1.5 hours, average value (n=3), read-out: IC50 value, inhibitory activity against human MIP-1β-induced cell migration of human cultured PBMC
Procedure: Preparation of PBMC (Peripheral Blood Mononuclear Cell)
Human venous blood (50 mL) collected by using syringe with heparin sodium (final concentration: 10 U/mL, heparin sodium injection 1000 U/mL, Shimizu Pharmaceutical Co., Ltd.) was stored into 50 mL of conical tube made by polypropylene. To a Lymphoprep tube (HYCOMED PHARMA, Cat. No 1019818), 16.5 mL of DPBS (−) (GIBCO, Cat No. 14190-136) and a blood sample were added, jiggled several times, then centrifuged at 3000 rpm for 10 minutes at room temperature. […]
50 μL of 5×10^5 cells of the human PBMC suspension (culture medium) and 50 μL of the solution of the test compound (0-2 μmol/L: double concentration of a final concentration) were added to an upper well of transwell (coster), and 300 μL of 60 nmol/L of the human MIP-1β (Pepro tech, Cat. No. 300-09) and 300 μL of a double concentration of the solution of the test compound were added to a lower well. […] 100 μL of the solution was transferred to white 96 well plate for fluorescence from lower well by pipetting, an amount of cells was measured by using Celltiter Glo (Promega) (a measurement of ATP), Cell migration inhibition ratio was calculated by the following calculating formula. The value of IC50 was calculated from cell migration inhibition ratio of each concentration. […]

[1] = Stability test in liver microsome of monkey; details: liver microsome of monkey 1 mg/mL, test compound 5 μmol/L, 30 minutes at 37° C.

In the case of `CS(=O)(=O)Nc1ccc(Oc2ccc(CN3CCC(N(C(=O)Nc4ccc(F)cc4)c4ccsc4)CC3)cn2)cc1` [Example 7(29), N-(4-{[5-({4-[{[(4-fluorophenyl)amino]carbonyl}(3-thienyl)amino]-1-piperidinyl}methyl)-2-pyridinyl]oxy}phenyl)methanesulfonamide hydrochloride (or dihydrochloride)], the IC50 (human cultured PBMC) is reported as 1.2 nM.

For `CC(=O)Nc1cc(NC(=O)N(c2ccccc2)C2CCN(Cc3ccc(Oc4ccc(NS(C)(=O)=O)cc4)nc3)CC2)ccc1F` [Example 7(83), N-[2-fluoro-5-({[{1-[(6-{4-[(methylsulfonyl)amino]phenoxy}-3-pyridinyl)methyl]-4-piperidinyl}(phenyl)amino]carbonyl}amino)phenyl]acetamide hydrochloride (or dihydrochloride)], the “residual ratio of the unmetabolite” value [1] was 88%.
